Test results as given in patent US7446199B2, “Compositions useful as inhibitors of protein kinases” (Vertex Pharmaceuticals Incorporated, priority 2003, dated 2008).
pKi: −log10 of the molar value.

Legend:
Assay type in all cases: biochemical
JAK3 = biological target: T1, JAK3 (Homo sapiens, UniProt P52333); assay: JAK3 inhibition assay (ELISA, Poly (Glu, Ala, Tyr) coated plates); settings: 2 mM ATP, 60 minutes at 30° C.
T1 sequence (P52333 1-1124): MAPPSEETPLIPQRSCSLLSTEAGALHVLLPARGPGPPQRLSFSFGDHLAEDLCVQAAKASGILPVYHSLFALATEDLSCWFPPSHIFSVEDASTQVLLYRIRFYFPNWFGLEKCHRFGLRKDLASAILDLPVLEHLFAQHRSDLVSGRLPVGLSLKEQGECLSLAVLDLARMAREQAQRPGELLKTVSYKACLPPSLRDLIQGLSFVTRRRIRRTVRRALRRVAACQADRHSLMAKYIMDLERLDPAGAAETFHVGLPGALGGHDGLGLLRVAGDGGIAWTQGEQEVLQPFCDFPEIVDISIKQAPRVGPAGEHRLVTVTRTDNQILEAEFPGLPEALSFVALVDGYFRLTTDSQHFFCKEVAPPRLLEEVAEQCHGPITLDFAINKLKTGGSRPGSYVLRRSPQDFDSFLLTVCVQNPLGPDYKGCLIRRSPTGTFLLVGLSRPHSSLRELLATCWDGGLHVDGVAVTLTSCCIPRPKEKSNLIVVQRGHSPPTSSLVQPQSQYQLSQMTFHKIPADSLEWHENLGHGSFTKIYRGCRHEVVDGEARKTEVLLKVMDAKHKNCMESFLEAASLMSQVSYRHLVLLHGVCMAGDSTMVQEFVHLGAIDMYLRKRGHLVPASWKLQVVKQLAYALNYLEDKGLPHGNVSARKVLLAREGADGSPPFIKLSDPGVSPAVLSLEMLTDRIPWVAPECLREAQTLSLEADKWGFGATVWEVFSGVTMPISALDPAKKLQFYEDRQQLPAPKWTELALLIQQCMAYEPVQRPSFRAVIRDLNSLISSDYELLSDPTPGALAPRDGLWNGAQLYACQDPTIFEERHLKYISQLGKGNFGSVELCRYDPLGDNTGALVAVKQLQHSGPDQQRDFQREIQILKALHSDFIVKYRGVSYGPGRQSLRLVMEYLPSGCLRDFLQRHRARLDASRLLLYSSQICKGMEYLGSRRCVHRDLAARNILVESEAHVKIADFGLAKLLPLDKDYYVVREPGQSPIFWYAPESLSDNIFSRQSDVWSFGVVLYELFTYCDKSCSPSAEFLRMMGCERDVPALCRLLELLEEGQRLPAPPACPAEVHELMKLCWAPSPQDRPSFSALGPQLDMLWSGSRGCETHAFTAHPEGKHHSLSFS
Method in brief: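 ELISA on Poly(Glu,Ala,Tyr) 6:3:1-coated plates with 2 mM ATP and 5 mM MgCl2. JAK enzyme started the reaction, run 60 min at 30° C. Phosphotyrosine was detected with HRP-conjugated 4G10 antibody and TMB, read at 450 nm, and IC50 was derived from optical densities.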

GSK-3β, (AA 1-420) = GSK-3β, (AA 1-420) (Homo sapiens, UniProt P49841); assay: GSK-3 inhibition assay, coupled enzyme system; settings: 20 μM ATP, 300 μM peptide, 20 nM GSK-3b, 30° C.; read-out: Ki values (GSK3)
Method in brief: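 Pyruvate kinase/lactate dehydrogenase-coupled NADH assay with 20 nM enzyme, 20 μM ATP and 300 μM peptide in HEPES pH 7.5, 1.5% DMSO, 30° C. Compound (0.002–30 μM, 12-point) preincubated 10 min before ATP start; rates over 10 min gave Ki.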

KDR = KDR (Homo sapiens, UniProt P35968); assay: KDR enzyme assay, coupled enzyme assay; settings: 300 μM ATP, 10 μM poly E4Y, 30 nM KDR, 37° C.
Method in brief: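 Coupled enzyme (PK/LDH, NADH) assay with 30 nM KDR in 200 mM HEPES 7.5, 10 mM MgCl2, 25 mM NaCl, 1 mM DTT, 1.5% DMSO; 300 μM ATP, 10 μM poly E4Y. Compound at 30 μM final, preincubated ~10 min at 37 °C before ATP start; rates read over 5 min at 37 °C.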

Sequence of KDR (P35968 20-1356): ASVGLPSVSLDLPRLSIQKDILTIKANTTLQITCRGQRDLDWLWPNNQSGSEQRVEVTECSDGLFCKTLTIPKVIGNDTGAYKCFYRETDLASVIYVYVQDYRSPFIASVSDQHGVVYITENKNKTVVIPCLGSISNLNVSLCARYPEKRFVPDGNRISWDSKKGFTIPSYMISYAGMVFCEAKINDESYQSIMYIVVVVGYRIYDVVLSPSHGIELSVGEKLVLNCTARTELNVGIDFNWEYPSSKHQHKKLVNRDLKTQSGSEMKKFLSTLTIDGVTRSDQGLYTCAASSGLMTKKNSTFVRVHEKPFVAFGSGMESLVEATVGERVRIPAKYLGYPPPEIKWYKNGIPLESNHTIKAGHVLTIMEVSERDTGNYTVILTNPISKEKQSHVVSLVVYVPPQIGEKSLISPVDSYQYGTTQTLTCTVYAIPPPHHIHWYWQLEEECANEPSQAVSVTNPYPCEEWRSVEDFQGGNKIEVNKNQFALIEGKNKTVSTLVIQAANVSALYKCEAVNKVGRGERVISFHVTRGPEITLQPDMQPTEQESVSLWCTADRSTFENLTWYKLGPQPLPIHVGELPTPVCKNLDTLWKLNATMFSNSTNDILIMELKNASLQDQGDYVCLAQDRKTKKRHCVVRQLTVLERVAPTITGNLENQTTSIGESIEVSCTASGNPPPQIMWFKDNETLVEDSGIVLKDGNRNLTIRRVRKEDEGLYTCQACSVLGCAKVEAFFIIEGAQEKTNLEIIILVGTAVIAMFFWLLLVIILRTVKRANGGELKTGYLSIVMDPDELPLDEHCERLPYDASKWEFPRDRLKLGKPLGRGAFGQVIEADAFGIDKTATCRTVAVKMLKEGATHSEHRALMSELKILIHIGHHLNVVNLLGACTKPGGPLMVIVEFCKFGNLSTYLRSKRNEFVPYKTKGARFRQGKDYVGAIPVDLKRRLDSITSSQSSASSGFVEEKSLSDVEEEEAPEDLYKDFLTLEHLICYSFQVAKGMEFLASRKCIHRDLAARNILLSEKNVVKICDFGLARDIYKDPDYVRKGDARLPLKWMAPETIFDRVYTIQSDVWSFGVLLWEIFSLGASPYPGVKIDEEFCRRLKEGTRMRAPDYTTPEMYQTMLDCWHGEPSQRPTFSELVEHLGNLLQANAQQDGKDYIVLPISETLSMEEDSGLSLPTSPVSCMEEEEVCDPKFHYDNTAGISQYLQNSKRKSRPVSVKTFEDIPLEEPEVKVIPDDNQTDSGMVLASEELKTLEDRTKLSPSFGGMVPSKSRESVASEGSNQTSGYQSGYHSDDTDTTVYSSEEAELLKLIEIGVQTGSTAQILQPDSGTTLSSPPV
Sequence of GSK-3β, (AA 1-420) (P49841 whole entry, the tested form may be a part): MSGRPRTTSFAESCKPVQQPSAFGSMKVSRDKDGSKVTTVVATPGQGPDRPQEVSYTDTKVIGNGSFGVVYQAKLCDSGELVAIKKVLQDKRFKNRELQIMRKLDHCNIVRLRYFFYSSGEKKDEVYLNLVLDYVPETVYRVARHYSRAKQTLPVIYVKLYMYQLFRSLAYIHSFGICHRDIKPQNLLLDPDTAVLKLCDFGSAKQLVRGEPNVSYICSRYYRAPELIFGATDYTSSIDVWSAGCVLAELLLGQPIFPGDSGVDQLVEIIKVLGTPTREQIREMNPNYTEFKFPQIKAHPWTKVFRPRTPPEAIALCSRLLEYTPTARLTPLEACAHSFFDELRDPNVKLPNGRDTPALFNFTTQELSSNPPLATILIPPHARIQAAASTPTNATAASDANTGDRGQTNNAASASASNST

Structure (SMILES) | pKi (JAK3) | pKi (GSK-3β, (AA 1-420)) | pKi (KDR)
c1cnc2[nH]cc(-c3oncc3C3CCCCC3)c2c1 [Compound 47, 3-(4-Cyclohexyl-isoxazol-5-yl)-1H-pyrrolo[2,3-b]pyridine] | 6.00 to 6.70 | 4.90 to 6.00 | 4.90 to 6.00
CN(C)CC#Cc1cnc2[nH]cc(-c3oncc3-c3cccc(F)c3F)c2c1 [Compound 53, (3-{3-[4-(2,3-Difluoro-phenyl)-isoxazol-5-yl]-1H-pyrrolo[2,3-b]pyridin-5-yl}-prop-2-ynyl)-dimethyl-amine] | 6.00 to 6.70 | 6.00 to 6.70 | 6.00 to 6.70
Oc1cnc2[nH]cc(-c3oncc3-c3cccc(F)c3F)c2c1 [Compound 43, 3-[4-(2,3-Difluoro-phenyl)-isoxazol-5-yl]-1H-pyrrolo[2,3-b]pyridin-5-ol] | > 6.70 | 6.00 to 6.70 | 6.00 to 6.70
Fc1c(Cl)cccc1-c1cnoc1-c1c[nH]c2ncccc12 [Compound 42, 3-[4-(3-Chloro-2-fluoro-phenyl)-isoxazol-5-yl]-1H-pyrrolo[2,3-b]pyridine] | 6.00 to 6.70 | 4.90 to 6.00 | 6.00 to 6.70
Fc1cccc(-n2cnnc2-c2c[nH]c3ncc(-c4cccnc4)cc23)c1F [Compound 113, 3-[4-(2,3-Difluoro-phenyl)-4H-[1,2,4]triazol-3-yl]-5-pyridin-3-yl-1H-pyrrolo[2,3-b]pyridine] | 4.90 to 6.00 | > 6.70 | 6.00 to 6.70
CN(C)CCNc1ccc(-c2cnc3[nH]cc(-c4nncn4-c4cccc(F)c4F)c3c2)cn1 [Compound 119, N′-(5-{3-[4-(2,3-Difluoro-phenyl)-4H-[1,2,4]triazol-3-yl]-1H-pyrrolo[2,3-b]pyridin-5-yl}-pyridin-2-yl)-N,N-dimethyl-ethane-1,2-diamine] | 4.90 to 6.00 | 6.00 to 6.70 | 6.00 to 6.70
Fc1cccc(Cc2cnoc2-c2c[nH]c3ncccc23)c1F [Compound 36, 3-[4-(2,3-Difluoro-benzyl)-isoxazol-5-yl]-1H-pyrrolo[2,3-b]pyridine] | 4.90 to 6.00 | 6.00 to 6.70 | 4.90 to 6.00
OC1CCN(c2ccc(-c3cnc4[nH]cc(-c5nncn5-c5cccc(F)c5F)c4c3)cn2)CC1 [Compound 116, 5′-{3-[4-(2,3-Difluoro-phenyl)-4H-[1,2,4]triazol-3-yl]-1H-pyrrolo[2,3-b]pyridin-5-yl}-3,4,5,6-tetrahydro-2H-[1,2′]bi-pyridinyl-4-ol] | 6.00 to 6.70 | 6.00 to 6.70 | 6.00 to 6.70
Cc1noc(-c2c[nH]c3ncccc23)c1-c1cccc(F)c1F [Compound 134, 3-[4-(2,3-Difluoro-phenyl)-3-methyl-isoxazol-5-yl]-1H-pyrrolo[2,3-b]pyridine] | 6.00 to 6.70 | 6.00 to 6.70 | 4.90 to 6.00
CN(C)C1CC=C(c2cnc3[nH]cc(-c4oncc4-c4cccc(F)c4F)c3c2)CC1 (stereo not drawn) [Compound 138, (4-{3-[4-(2,3-Difluoro-phenyl)-isoxazol-5-yl]-1H-pyrrolo[2,3-b]pyridin-5-yl}-cyclohex-3-enyl)-dimethyl-amine] | > 6.70 | > 6.70 | > 6.70
Fc1cccc(-c2cnoc2-c2c[nH]c3ncc(C4CCNCC4)cc23)c1F [Compound 62, 3-[4-(2,3-Difluoro-phenyl)-isoxazol-5-yl]-5-piperidin-4-yl-1H-pyrrolo[2,3-b]pyridine] | 4.90 to 6.00 | 6.00 to 6.70 | 4.90 to 6.00
CS(=O)(=O)n1ccc2cc(-c3cnc4[nH]cc(-c5oncc5-c5cccc(F)c5F)c4c3)cnc21 [Compound 97, 3′-[4-(2,3-Difluoro-phenyl)-isoxazol-5-yl]-1-methanesulfonyl-1H, 1′H-[5,5′]bi[pyrrolo[2,3-b]pyridinyl]] | 6.00 to 6.70 | > 6.70 | > 6.70

More lines, now with the values ahead:

pKi (JAK3) | pKi (GSK-3β, (AA 1-420)) | pKi (KDR) | Structure (SMILES)
> 6.70 | 6.00 to 6.70 | 6.00 to 6.70 | Fc1cccc(-c2cnoc2-c2c[nH]c3ncc(-c4ccc(CN5CCOCC5)cc4)cc23)c1F [Compound 92, 3-[4-(2,3-Difluoro-phenyl)-isoxazol-5-yl]-5-(4-morpholin-4-ylmethyl-phenyl)-1H-pyrrolo[2,3-b]pyridine]
> 6.70 | > 6.70 | > 6.70 | NC1CC=C(c2cnc3[nH]cc(-c4oncc4-c4cccc(F)c4F)c3c2)CC1 (stereo not drawn) [Compound 137, 4-{3-[4-(2,3-Difluoro-phenyl)-isoxazol-5-yl]-1H-pyrrolo [2,3-b]pyridin-5-yl}-cyclohex-3-enylamine]
> 6.70 | 6.00 to 6.70 | > 6.70 | CC(=O)Nc1cccc(-c2cnc3[nH]cc(-c4oncc4-c4cccc(F)c4F)c3c2)c1 [Compound 65, N-(3-{3-[4-(2,3-Difluoro-phenyl)-isoxazol-5-yl]-1H-pyrrolo[2,3-b]pyridin-5-yl}-phenyl)-acetamide]
> 6.70 | 4.90 to 6.00 | 6.00 to 6.70 | CC(=O)Nc1ccc(-c2cnc3[nH]cc(-c4oncc4-c4cccc(F)c4F)c3c2)cc1 [Compound 95, N-(4-{3-[4-(2,3-Difluoro-phenyl)-isoxazol-5-yl]-1H-pyrrolo[2,3-b]pyridin-5-yl}-phenyl)-acetamide]
> 6.70 | 6.00 to 6.70 | > 6.70 | CN(C)Cc1ccc(-c2cnc3[nH]cc(-c4oncc4-c4cccc(F)c4F)c3c2)nc1 [Compound 84, (6-{3-[4-(2,3-Difluoro-phenyl)-isoxazol-5-yl]-1H-pyrrolo[2,3-b]pyridin-5-yl}-pyridin-3-ylmethyl)-dimethyl-amine]
> 6.70 | 4.90 to 6.00 | 6.00 to 6.70 | Fc1cccc(-c2cnoc2-c2c[nH]c3ncc(-c4ncccn4)cc23)c1F [Compound 75, 3-[4-(2,3-Difluoro-phenyl)-isoxazol-5-yl]-5-pyrimidin-2-yl-1H-pyrrolo[2,3-b]pyridine]
> 6.70 | 6.00 to 6.70 | > 6.70 | CN(C)c1ccc(-c2cnc3[nH]cc(-c4oncc4-c4cccc(F)c4F)c3c2)cc1 [Compound 88, (4-{3-[4-(2,3-Difluoro-phenyl)-isoxazol-5-yl]-1H-pyrrolo[2,3-b]pyridin-5-yl}-phenyl)-dimethyl-amine]
6.00 to 6.70 | 6.00 to 6.70 | > 6.70 | COc1ccnc(-c2cnc3[nH]cc(-c4oncc4-c4cccc(F)c4F)c3c2)c1 [Compound 78, 3-[4-(2,3-Difluoro-phenyl)-isoxazol-5-yl]-5-(4-methoxy-pyridin-2-yl)-1H-pyrrolo[2,3-b]pyridine]
> 6.70 | 6.00 to 6.70 | 6.00 to 6.70 | Fc1cccc(-c2cnoc2-c2c[nH]c3ncc(-c4ccncc4)cc23)c1F [Compound 57, 3-[4-(2,3-Difluoro-phenyl)-isoxazol-5-yl]-5-pyridin-4-yl-1H-pyrrolo[2,3-b]pyridine]
> 6.70 | 4.90 to 6.00 | 6.00 to 6.70 | Oc1cccc(-c2cnc3[nH]cc(-c4oncc4-c4cccc(F)c4F)c3c2)c1 [Compound 87, 3-{3-[4-(2,3-Difluoro-phenyl)-isoxazol-5-yl]-1H-pyrrolo [2,3-b]pyridin-5-yl}-phenol]
> 6.70 | 6.00 to 6.70 | > 6.70 | CN1CCN(c2ccc(-c3cnc4[nH]cc(-c5oncc5-c5cccc(F)c5F)c4c3)cn2)CC1 [Compound 71, 3-[4-(2,3-Difluoro-phenyl)-isoxazol-5-yl]-5-[6-(4-methyl-piperazin-1-yl)-pyridin-3-yl]-1H-pyrrolo[2,3-b]pyridine]
